Test results as given in patent US20040176289A1, “Pharmaceutical composition for prevention and treatment of joint arthritis and a screening method thereof” (priority 2001, published 2004).
Entries after “also recorded” stand apart in the source; their conditions may differ.

How the values were obtained:
[1] = system: chondrocytes; assay: NO production in chondrocytes treated with SNP; type: cell-based
Text: In order to investigate the effect of NO produced in chondrocytes on the de-differentiation of chondrocytes, the present inventors treated the cells with […] (SNP), a NO donor, to induce No production.

[2] = system: chondrocytes; assay: NO (SNP) induced de-differentiation of chondrocytes (type-II collagen, proteoglycan); type: cell-based
Text: (§1) In order to investigate the effect of ERK activity on the de-differentiation of chondrocytes induced by NO production, the change of ERK activity in SNP treated chondrocytes was detected. […] In order to increase the ERK activity by SNP, at least 0. […] The ERK activity inhibitor also restrained the inhibition of type-II collagen expression by SNP (FIG. 8C), and it blocked the decrease of proteoglycan synthesis induced by SNP (FIG. 8D).

[3] = system: ERK; assay: ERK activity in SNP treated chondrocytes; type: cell-based
Text: as §1
(§2) For the activation of ERK, phosphorylation by MEK, the upstream signal transduction molecule of ERK, is required.

[4] = system: ERK; assay: ERK activity (Western blot, phosphorylated ERK-specific antibody) in micromass-cultured mesenchymal cells; type: cell-based, chicken; settings: mesenchymal cells treated with PD98059, micromass culture
Protocol: (§3) The present inventors have observed the differentiation process of chondrocytes using limb bud mesenchymal cells of Hamburger-Hamilton stage 24-25 chicken embryo under micromass culture (FIG. 1A). Particularly, mesenchymal cells were suspended in Ham's F-12 medium (Gibco BRL, Gaithersburg, Md., USA) supplemented with 10% fetal bovine serum (2×10^7 cells/ ml). The cell suspension was loaded onto culture dish (15 μl/spot) and cultured at 37° C. for two hours in order to fix the cells on the dish. The cells were further cultured in the Ham's F-12 medium containing 10% FBS, 50 μg/ml streptomycin, and 50 units/ml penicillin.
The present inventors have confirmed the effect of ERK activity inhibition on the differentiation of chondrocytes. Particularly, the present inventors have investigated how the differentiation was influenced by the change and the inhibition of ERK activity during the differentiation process of chondrocytes induced by micromass culture of mesenchimal cells (FIG. 2A and Example 1-1). […] Therefore, it was confirmed that the decrease of ERK activity was required for the differentiation from mesenchimal cells to chondrocytes; that is, the differentiation of chondrocytes was stimulated by the inhibition of ERK activity.
as §2

[5] = system: limb bud mesenchymal cells of chicken embryo; assay: Differentiation of mesenchymal cells to chondrocytes (alcian blue staining, type-II collagen Western blot); type: cell-based
Protocol: as §3
As a result, when mesenchymal cells were micromass cultured for five days, the synthesis of type-II collagen, a characteristic of chondrocytes, began to take place from the third day of culturing, which was confirmed by Western blotting using an antibody implying that the differentiation of chondrocytes was progressed. The accumulation of sulfated proteoglycan was also confirmed through alcian blue staining to be increased, which also implied that the differentiation of chondrocytes began from the third day of culturing and completed on the fifth day (FIG. 2A).
The present inventors have confirmed the effect of ERK activity inhibition on the differentiation of chondrocytes. […]

[6] = system: ERK; assay: ERK activity in serially monolayer-cultured articular chondrocytes; type: cell-based, rabbit; settings: 20 μM, chondrocytes of each passage, two additional days
Text: In order to confirm the de-differentiation and degeneration of chondrocytes, the present inventors have performed consecutively monolayer culture with articular chondrocytes of a two- to four-week-old rabbit (FIG. 1B). Particularly, articular cartilage of the rabbit was thin-sectioned aseptically, and the articular fragments were then reacted in PBS containing 0.2% collagenase type-II (Sigma) for six hours. Through quick-centrifugation, single cells were obtained. The single cells were suspended in DMEM (Dulbecco 's modified Eagle's medium, Gibco BRL, Gaithersburg, Md., USA) containing 10% FBS, 50 μg/ml streptomycin, and 50 units/ml penicillin and were plated onto a culture-dish at a density of 5×10^4 cells/cm^2 and cultured at 37° C. The medium was changed every other day. Five days later, the culture dish was filled with grown-up cells, which were identified as P0. Those cells were subcultured at the concentration of 5×10^4 cells/cm^2 per culture dish. […]
In order to ascertain the effect of ERK activity on the de-differentiation of chondrocytes, rabbit articular cartilage cells were cultured at the density of 5×10^4 cells/cm^2 on a culture dish. […] The expression of type-II collagen was analyzed by Western and Northern blotting, resulting in the highest expression in, P0, beginning to decrease in P1 and almost no expression after P3 (FIG. 4A). […]

[7] = system: rabbit articular chondrocytes; assay: De-differentiation of articular chondrocytes in serial monolayer culture (type-II collagen, proteoglycan synthesis); type: cell-based; settings: two days; for expression of type-II collagen: 20 μM
Text: In order to confirm the de-differentiation and degeneration of chondrocytes, the present inventors have performed consecutively monolayer culture with articular chondrocytes of a two- to four-week-old rabbit (FIG. 1B). Particularly, articular cartilage of the rabbit was thin-sectioned aseptically, and the articular fragments were then reacted in PBS containing 0.2% collagenase type-II (Sigma) for six hours. Through quick-centrifugation, single cells were obtained. The single cells were suspended in DMEM (Dulbecco 's modified Eagle's medium, Gibco BRL, Gaithersburg, Md., USA) containing 10% FBS, 50 μg/ml streptomycin, and 50 units/ml penicillin and were plated onto a culture-dish at a density of 5×10^4 cells/cm^2 and cultured at 37° C. The medium was changed every other day. Five days later, the culture dish was filled with grown-up cells, which were identified as P0. Those cells were subcultured at the concentration of 5×10^4 cells/cm^2 per culture dish. The cells were continuously subcultured whenever they were fully grown to fill the dishes and were identified as P1 and next P2. Subculture was finished when P6 phase was completed. […] It was also confirmed by alcian blue staining that the accumulation of glycosaminoglycan sulfide was decreased as the subculture was continued. The de-differentiation and degeneration of chondrocytes were also disclosed by observing the shape of chondrocytes, which was changed from their distinguished round shape to fibroblast shape, a characteristic of degenerated chondrocytes (FIG. 2B).
In order to ascertain the effect of ERK activity on the de-differentiation of chondrocytes, rabbit articular cartilage cells were cultured at the density of 5×10^4 cells/cm^2 on a culture dish. The cells began to proliferate on the second day of culture and reached saturation on the fifth day. The cells in saturation point were designated as P0. The cells in P0 stage had typical round or polygonal shapes, but these forms changed into flat and fibroblast-like shapes while the cells were going through P6 stage by serial monolayer culture (FIG. 2B). The expression of type-II collagen was analyzed by Western and Northern blotting, resulting in the highest expression in, P0, beginning to decrease in P1 and almost no expression after P3 (FIG. 4A). […] Therefore, it was confirmed that the ERK activity was in inverse proportion to the expression of type-II collagen, which means the ERK activity plays an important role in the de-differentiation process.
To determine the relations between ERK activity and de-differentiation, the cells under subculturing were treated with 2-(2-amino-3-methoxyphenol)-4H-1-benzopyran-4-one (PD98059), an ERK activity inhibitor, and the synthesis of collagen and proteoglycan was observed. […]

[8] = system: P0 and P2 chondrocytes; assay: Immunostaining of type-II collagen in P0 and P2 chondrocytes; type: cell-based, rabbit; settings: 20 μM, two days, immunofluorescence
Protocol: In order to examine the suppression of de-differentiation by the inhibition of ERK activity, the expression of collagen was observed by immunostaining. Particularly, 20 μM of ERK activity inhibitor 2-(2-amino-3-methoxyphenol)-4H-1-benzopyran-4-one (PD98059) was added into P0 and P2 chondrocytes, and the cells were then cultured for two days. The cultured cells were fixed with 3% parpformaldehyde for ten minutes and some parts of the cell membranes were disrupted by 0.2% X-100. Next, anti-type II collagen antibody (10 μg/ml) was added thereto and continued to culture thereof for one hour.

[9] = system: MMP-9; assay: MMP-9 activity/expression by gelatin zymography in IL-1β treated articular cartilage cells; type: cell-based
Protocol: Particularly, articular cartilage cells were treated with 10 ng/ml of IL-1β according to the different times (0 minutes, ten minutes, thirty minutes, one hour, two hours, four hours, six hours, twelve hours, and 24 hours) and concentrations (0 ng/ml, 0.01 ng/ml , 0.1 ng/ml, 1 ng/ml, and 10 ng/ml), and culture supernatant was then obtained, followed by electrophoresis on the gel containing 2% gelatin. The separated gel was cultured at 37° C. for twelve hours, by which the decomposition of gelatin was induced by MMP-9. The remaining gelatin was stained for the confirmation of gelatin decomposition by MMP, based on which the MMP-9 activity was measured.

[10] = system: chondrocytes; assay: IL-1β induced NO production in chondrocytes (nitrite); type: cell-based
Protocol: Particularly, the amount of NO was determined by measuring the concentration of nitrite, a reaction product of NO, secreted after treating chondrocytes with IL1-β for 24 hours.

[11] = system: COX-2; assay: COX-2 expression in IL-1β treated chondrocytes (Western blotting); type: cell-based
Protocol: The present inventors have further investigated the relation between the inhibition of ERK activity and the expression of COX-2. Particularly, the inventors have confirmed with Western blotting the quantity of cox-2 protein expressed in chondrocytes after treating the cells with different concentrations of IL-1β for 24 hours.

[12] = system: SPF SD line rats; assay: Acute toxicity test in rat via non-oral administration; type: in vivo
Protocol: Six-week old SPF SD line rats were used in the tests for acute toxicity. 2-(2-amino-3-methoxyphenol)-4H-1-benzopyran-4-one (PD98059) of the present invention was suspended in 0.5% methyl cellulose solution and intravenous injected once into two rats per group at dosages of 50, 30, and 10 mg/kg/15 ml. Death, clinical symptoms, and weight change in the rats were observed, hematological tests and biochemical tests of blood were performed, and abnormal signs in the gastrointestinal organs of chest and abdomen were observed visually during autopsy.

[13] = system: ERK; assay: ERK activity in IL-1β treated chondrocytes; type: cell-based; settings: chondrocytes treated with IL-1β
[14] = single intravenous injection, 50, 30 and 10 mg/kg/15 ml

`CC(=O)N[C@H](C(=O)O)C(C)(C)SN=O` [SNP, S-nitroso-N-acetyl penicillamine] was tested, and the NO production [1] was “in proportion to the concentration”, the “expression of type-II collagen” value ([2]; 0.1 mM SNP, 24 hours) was “started to decrease” and the “expression of type-II collagen” value ([2]; 1 mM SNP, 12 hours) was “began to decrease”. For the same molecule, the “expression of type-II collagen” value ([2]; 1 mM SNP, 24 hours) was “totally suppressed”, the synthesis of proteoglycan ([2]; SNP treated chondrocytes) was “decreased depending on the concentration” and the “ERK activity, time course” value ([3]; 1 mM SNP) was “began to increase three hours after the treatment and reached the highest activity twelve hours later”. The “SNP concentration required to increase the ERK activity” value ([3]; chondrocytes) was “at least 0. 5 mM”.
With `COc1cccc(-c2cc(=O)c3ccccc3o2)c1N` [PD98059, 2-(2-amino-3-methoxyphenol)-4H-1-benzopyran-4-one] the “activity of ERK” value [4] was “decreased in a dose-dependent manner”, the “synthesis of proteoglycan (alcian blue staining)” value ([5]; mesenchymal cells treated with PD98059) was “remarkably increased; also recorded: largely increased” and the “expression of type-II collagen” value ([5]; mesenchymal cells treated with PD98059, Western blot) was “also increased”. For the same molecule, the ERK activity [6] was “suppressed”, the “increase of synthesis of proteoglycan by a factor (alcian blue staining)” value ([7]; P0, 20 μM) was 2.6 and the “expression of type-II collagen” value ([7]; P0 cells) was “largely increased”. For the same molecule, the “increase of synthesis of proteoglycan by a factor (alcian blue staining)” value ([7]; P2, 20 μM) was 6.4, the “expression of type-II collagen” value ([7]; P2 cells) was “turned to express again” and the “numbers of type-II collagen expressed cells” value ([8]; P0 cells) was “remarkably increased”. The “numbers of type-II collagen expressed cells” value ([8]; P2 cells) was “greatly increased”, the “decrease of proteoglycan synthesis induced by SNP” value ([2]; PD98059 with SNP) was “blocked” and the “inhibition of type-II collagen expression by SNP” value ([2]; PD98059 with SNP) was “restrained”. The ERK activity ([3]; 20 μM PD98059, SNP treated chondrocytes) was “totally restrained”, the “expression of MMP-9” value ([9]; 10 μM PD98059, IL-1β treated chondrocytes) was “suppressed” and the “NO production caused by IL-1β” value ([10]; 5 μM PD98059, IL-1β for 24 hours, nitrite) was “completely inhibited”. The “expression of cox-2” value ([11]; 5 μM PD98059, IL-1β for 24 hours) was “completely suppressed”, the “level not causing any toxic change” value ([12]; single intravenous injection) was ≤ 50 mg/kg and the “clinical symptoms, weight change, death” value [12, 14] was “did not cause any specific clinical symptoms, weight change, or death”. For the same molecule, the “hematological tests, biochemical tests of blood, autopsy” value [12, 14] was “No change was observed”.
For IL-1β: an inflammatory cytokine, the “expression of MMP-9” value ([9]; IL-1β 0-10 ng/ml, gelatin zymography) was “largely increased depending on the concentration”, the ERK activity [13] was “temporarily increased at the early stage” and the NO production ([10]; chondrocytes treated with IL-1β) was “stimulates NO production in a dose-dependent manner”. The “expression of cox-2” value ([11]; different concentrations of IL-1β, 24 hours) was “increased depending on the concentration”.
